Laboratory results taken from patent US8673897B2, “Benzodiazepinone compounds and methods of treatment using same” (The Regents of the University of Michigan, priority 2009, dated 2014).
Read-outs that look alike come from different tables or passages of the source.

Key:
[1] = system: Ramos cells; test: Ramos cell death assay (cytotoxicity); type: cell-based; conditions: Homo sapiens
Protocol: (§1) Representative compounds were tested for cytotoxicity in Ramos cells and inhibitory activity against ATPase. The Ramos cell death assay and ATPase inhibition assay were conducted as described in K. M. Johnson et al. Chemistry & Biology 2005, 12, 485-496.

[2] = target: T1, ATPase (Bos taurus, UniProt P13621); test: ATPase inhibition assay; type: biochemical
T1 construct: from tissue; host or cells: bovine sub-mitochondrial particles (SMPs)
Protocol: as §1

SMILES	EC50 [1]	IC50 [2]	IC50 ([2]; read-out: ATPase IC50)
Cc1cc(C2=NC(Cc3ccc(Cl)cc3)C(=O)Nc3ccc(Cl)cc32)ccc1O (stereo not drawn) [III-3, 7-Chloro-3-(4-chlorobenzyl)-5-(4-hydroxy-3-methylphenyl)-1H-benzo[e][1,4]diazepin-2(3H)-one]	< 7 µM	< 7 µM	–
Cn1c(=O)[nH]c2ccc(C3=N[C@@H](Cc4ccccc4Cl)C(=O)Nc4ccc(Cl)cc43)cc21 [IV-2, (S)-7-chloro-3-(2-chlorobenzyl)-5-(3-methyl-2-oxo-2,3-dihydro-1H-benzo[d]imidazol-5-yl)-1H-benzo[e][1,4]diazepin-2(3H)-one]	< 7 µM	< 7 µM	–
Cc1cc(C2=NC(Cc3ccc(C(F)(F)F)cc3)C(=O)Nc3ccc(Cl)cc32)ccc1O (stereo not drawn) [III-6, 7-Chloro-5-(4-hydroxy-3-methylphenyl)-3-(4-(trifluoromethyl)benzyl)-1H-benzo[e][1,4]diazepin-2(3H)-one]	> 7 µM	> 7 µM	–
O=C1Nc2ccc(Cl)cc2C(c2ccc3[nH]c(=O)n(CCO)c3c2)=NC1Cc1ccccc1Cl (stereo not drawn) [Compound I-6, 7-Chloro-3-(2-chlorobenzyl)-5-(3-(2-hydroxyethyl)-2-oxo-2,3-dihydro-1H-benzo[d]imidazol-5-yl)-1H-benzo[e][1,4]diazepin-2(3H)-one]	< 7 µM	–	> 7 µM
CN1C(=O)C(Cc2ccccc2Cl)N=C(c2ccc3[nH]c(=O)n(CCCO)c3c2)c2cc(Cl)ccc21 (stereo not drawn) [Compound I-7, 7-Chloro-3-(2-chlorobenzyl)-5-(3-(3-hydroxypropyl)-2-oxo-2,3-dihydro-1H-benzo[d]imidazol-5-yl)-1-methyl-1H-benzo[e][1,4]diazepin-2(3H)-one]	> 7 µM	–	< 7 µM
Cn1c(=O)[nH]c2ccc(C3=NC(Cc4ccccc4Cl)C(=O)Nc4ccc(Cl)cc43)cc21 (stereo not drawn) [Compound I-2, 7-Chloro-3-(2-chlorobenzyl)-5-(3-methyl-2-oxo-2,3-dihydro-1H-benzo[d]imidazol-5-yl)-1H-benzo[e][1,4]diazepin-2(3H)-one]	< 7 µM	< 7 µM	–
COc1cc(Cl)cc2c1NC(=O)C(Cc1ccccc1Cl)N=C2c1ccc2[nH]c(=O)n(C)c2c1 (stereo not drawn) [Compound I-9, 7-Chloro-3-(2-chlorobenzyl)-9-methoxy-5-(3-methyl-2-oxo-2,3-dihydro-1H-benzo[d]imidazol-5-yl)-1H-benzo[e][1,4]diazepin-2(3H)-one]	< 7 µM	–	< 7 µM
O=C(O)Cn1c(=O)[nH]c2ccc(C3=NC(Cc4ccccc4Cl)C(=O)Nc4ccc(Cl)cc43)cc21 (stereo not drawn) [Compound I-3, 2-(6-(7-Chloro-3-(2-chlorobenzyl)-2-oxo-2,3-dihydro-1H-benzo[e][1,4]diazepin-5-yl)-2-oxo-2,3-dihydro-1H-benzo[d]imidazol-1-yl)acetic acid]	> 7 µM	–	> 7 µM
Cc1cc(C2=N[C@H](Cc3ccccc3Cl)C(=O)Nc3ccc(Cl)cc32)ccc1O [IV-6, (R)-7-Chloro-3-(2-chlorobenzyl)-5-(4-hydroxy-3-methylphenyl)-1H-benzo[e][1,4]diazepin-2(3H)-one]	< 7 µM	< 7 µM	–
CCc1ccc(CC2N=C(c3ccc(O)c(CC(N)=O)c3)c3cc(Cl)ccc3NC2=O)cc1CC (stereo not drawn) [III-1, 2-(5-(7-Chloro-3-(3,4-diethylbenzyl)-2-oxo-2,3-dihydro-1H-benzo[e][1,4]diazepin-5-yl)-2-hydroxyphenyl)acetamide]	< 7 µM	–	> 7 µM
O=C1Nc2ccc(F)cc2C(c2ccc3[nH]c(=O)[nH]c3c2)=NC1Cc1ccccc1Cl (stereo not drawn) [II-1, 3-(2-Chlorobenzyl)-7-fluoro-5-(2-oxo-2,3-dihydro-1H-benzo[d]imidazol-5-yl)-1H-benzo[e][1,4]diazepin-2(3H)-one]	< 7 µM	> 7 µM	–
CCn1c(=O)[nH]c2ccc(C3=NC(Cc4ccc5ccccc5c4)C(=O)N(C)c4ccc(Cl)cc43)cc21 (stereo not drawn) [Compound I-1, 7-Chloro-5-(3-ethyl-2-oxo-2,3-dihydro-1H-benzo[d]imidazol-5-yl)-1-methyl-3-(naphthalen-2-ylmethyl)-1H-benzo[e][1,4]diazepin-2(3H)-one]	> 7 µM	–	< 7 µM
Cn1c(=O)[nH]c2ccc(C3=NC(Cc4ccccc4Cl)C(=O)Nc4c(F)cc(Cl)cc43)cc21 (stereo not drawn) [Compound I-12, 7-Chloro-3-(2-chlorobenzyl)-9-fluoro-5-(3-methyl-2-oxo-2,3-dihydro-1H-benzo[d]imidazol-5-yl)-1H-benzo[e][1,4]diazepin-2(3H)-one]	> 7 µM	–	< 7 µM
CN1C(=O)C(Cc2ccccc2Cl)N=C(c2ccc3[nH]c(=O)n(C)c3c2)c2cc(Cl)ccc21 (stereo not drawn) [Compound I-11, 7-Chloro-3-(2-chlorobenzyl)-1-methyl-5-(3-methyl-2-oxo-2,3-dihydro-1H-benzo[d]imidazol-5-yl)-1H-benzo[e][1,4]diazepin-2(3H)-one]	> 7 µM	–	< 7 µM
CCn1c(=O)[nH]c2cc(C3=NC(Cc4ccc5ccccc5c4)C(=O)Nc4ccc(Cl)cc43)ccc21 (stereo not drawn) [Compound I-14]	< 7 µM	–	< 7 µM
Cc1cc(C2=NC(Cc3cc(F)ccc3Cl)C(=O)Nc3ccc(Cl)cc32)ccc1O (stereo not drawn) [III-2, 7-Chloro-3-(2-chloro-5-fluorobenzyl)-5-(4-hydroxy-3-methylphenyl)-1H-benzo[e][1,4]diazepin-2(3H)-one]	< 7 µM	< 7 µM	–
Cc1cc(C2=NC(Cc3ccc(F)cc3Cl)C(=O)Nc3ccc(Cl)cc32)ccc1O (stereo not drawn) [III-4, 7-Chloro-3-(2-chloro-4-fluorobenzyl)-5-(4-hydroxy-3-methylphenyl)-1H-benzo[e][1,4]diazepin-2(3H)-one]	< 7 µM	< 7 µM	–
O=C1Nc2ccc(Cl)cc2C(c2ccc3[nH]c(=O)n(CCCO)c3c2)=N[C@H]1Cc1ccccc1Cl [IV-4, (S)-7-Chloro-3-(2-chlorobenzyl)-5-(3-(3-hydroxypropyl)-2-oxo-2,3-dihydro-1H-benzo[d]imidazol-5-yl)-1H-benzo[e][1,4]diazepin-2(3H)-one]	< 7 µM	–	< 7 µM
O=C1Nc2ccc(Cl)cc2C(c2ccc3[nH]c(=O)n(CCCO)c3c2)=N[C@@H]1Cc1ccccc1Cl [IV-3, (R)-7-chloro-3-(2-chlorobenzyl)-5-(3-(3-hydroxypropyl)-2-oxo-2,3-dihydro-1H-benzo[d]imidazol-5-yl)-1H-benzo[e][1,4]diazepin-2(3H)-one]	< 7 µM	–	< 7 µM
Cc1cc(C2=N[C@@H](Cc3ccccc3Cl)C(=O)Nc3ccc(Cl)cc32)ccc1O [IV-5, (S)-7-Chloro-3-(2-chlorobenzyl)-5-(4-hydroxy-3-methylphenyl)-1H-benzo[e][1,4]diazepin-2(3H)-one]	< 7 µM	< 7 µM	–
Cn1c(=O)[nH]c2ccc(C3=NC(Cc4ccccc4Cl)C(=O)N(CCO)c4ccc(Cl)cc43)cc21 (stereo not drawn) [Compound I-8, 7-Chloro-3-(2-chlorobenzyl)-1-(2-hydroxyethyl)-5-(3-methyl-2-oxo-2,3-dihydro-1H-benzo[d]imidazol-5-yl)-1H-benzo[e][1,4]diazepin-2(3H)-one]	> 7 µM	–	< 7 µM
Cc1cc(C2=NC(Cc3ccccc3C(F)(F)F)C(=O)Nc3ccc(Cl)cc32)ccc1O (stereo not drawn) [III-5, 7-Chloro-5-(4-hydroxy-3-methylphenyl)-3-(2-(trifluoromethyl)benzyl)-1H-benzo[e][1,4]diazepin-2(3H)-one]	< 7 µM	< 7 µM	–
CNC(=O)Cn1c(=O)[nH]c2ccc(C3=NC(Cc4ccccc4Cl)C(=O)Nc4ccc(Cl)cc43)cc21 (stereo not drawn) [Compound I-4, 2-(6-(7-Chloro-3-(2-chlorobenzyl)-2-oxo-2,3-dihydro-1H-benzo[e][1,4]diazepin-5-yl)-2-oxo-2,3-dihydro-1H-benzo[d]imidazol-1-yl)-N-methylacetamide]	> 7 µM	–	> 7 µM
Cn1c(=O)[nH]c2ccc(C3=NC(Cc4ccccc4Cl)C(=O)Nc4c(O)cc(Cl)cc43)cc21 (stereo not drawn) [Compound I-10, 7-Chloro-3-(2-chlorobenzyl)-9-hydroxy-5-(3-methyl-2-oxo-2,3-dihydro-1H-benzo[d]imidazol-5-yl)-1H-benzo[e][1,4]diazepin-2(3H)-one]	> 7 µM	–	< 7 µM
O=C1Nc2ccc(Cl)cc2C(c2ccc3[nH]c(=O)n(CCCO)c3c2)=NC1Cc1ccccc1Cl (stereo not drawn) [Compound I-5, 7-Chloro-3-(2-chlorobenzyl)-5-(3-(3-hydroxypropyl)-2-oxo-2,3-dihydro-1H-benzo[d]imidazol-5-yl)-1H-benzo[e][1,4]diazepin-2(3H)-one]	< 7 µM	–	< 7 µM
Cn1c(=O)[nH]c2ccc(C3=N[C@H](Cc4ccccc4Cl)C(=O)Nc4ccc(Cl)cc43)cc21 [IV-1, (R)-7-Chloro-3-(2-chlorobenzyl)-5-(3-methyl-2-oxo-2,3-dihydro-1H-benzo[d]imidazol-5-yl)-1H-benzo[e][1,4]diazepin-2(3H)-one]	< 7 µM	< 7 µM	–
Cn1c(=O)[nH]c2ccc(C3=NC(Cc4ccc(Cl)cc4)C(=O)Nc4ccc(Cl)cc43)cc21 (stereo not drawn) [Compound I-13, 7-Chloro-3-(4-chlorobenzyl)-5-(3-methyl-2-oxo-2,3-dihydro-1H-benzo[d]imidazol-5-yl)-1H-benzo[e][1,4]diazepin-2(3H)-one]	< 7 µM	< 7 µM	–
